Results reported in patent US20240025892A1 (priority 2020, published 2024).
Entries after “also recorded” stand apart in the source; their conditions may differ.

Key:
[1] = system: bone cell marker genes, sclerostin; test: 3-week mouse study: cortical bone RT-qPCR and sclerostin immunohistochemistry; assay type: in vivo, mice; conditions: 3 weeks of treatment
Method: . For this, cortical bone RNA isolated from mice following three weeks of cmpd. 51 treatment were analyzed and subjected to RT-qPCR for well-established bone cell marker genes. […]. […] Therefore, sclerostin (encoded by the Sost gene) expression in bone in response to cmpd. 51 treatment was also assessed by RT-qPCR and immunohistochemistry. […]. Cmpd. 55A (FIG. 17) was also identified. […]

HDAC4/5 = HDAC4/5 phosphorylation immunoblot in Ocy454 cells; assay type: cell-based; conditions: 2 hours
Method: Immunoblotting was performed as previously described (see e.g., Wein et al, Nature Communications, 2016, 7:13176; and Sato et al, Nature Communications, 2020, 11(1):3282). […]. Adherent cells were washed with ice cold PBS, then scraped into TNT buffer on ice. Material was then transferred into Eppendorf tubes kept on ice, vortexed at top speed for 30 seconds, then centrifuged at top speed for 6 minutes at 4° C. For subcellular fractionation, cells were initially resuspended in hypotonic lysis buffer (20 mM HEPES, 10 mM KCl, 1 mM MgCl2, 0.1% Triton X-100, 5% glycerol supplemented with DTT, protease inhibitors, and phosphatase inhibitors) for 5 minutes on ice. Nuclear pellets were spun down at 5,000 rpm for 5 minutes, and the supernatant was saved as the cytoplasmic lysate. Thereafter, the nuclear pellet was washed once in 1 mL hypotonic lysis buffer. The nuclear pellet was then resuspended in hypertonic lysis buffer (20 mM HEPES, 400 mM NaCl, 1 mM EDTA, 0.1% Triton X-100, 5% glycerol supplemented with DTT, protease inhibitors, and phosphatase inhibitors), followed by vortexing twice for 30 seconds. Debris was spun down at 14,000 rpm for 5 minutes, and the supernatant was saved as the nuclear lysate. For immunoblotting, lysates or immunoprecipitates were separated by SDS-PAGE and proteins were transferred to nitrocellulose. Membranes were blocked with 5% milk in tris-buffered saline plus 0.05% Tween-20 (TBST) and incubated with primary antibody overnight at 4° C. The next day, membranes were washed, incubated with appropriate HRP-coupled secondary antibodies, and signals detected with ECL Western Blotting Substrate (Pierce), ECL Plus Western Blotting Substrate (Pierce), or SuperSignal West Femto Maximum Sensitivity Substrate (Thermo scientific). The primary antibodies phospho-HDAC4/5/7 (S246/S259/S155) (Cell Signaling Technology, 3443) and total HDAC5 (Assay Biotech, C0225).

[2] = system: eugonadal 8 week old male mice; test: 3-week mouse study: serum mineral metabolism parameters and bone turnover markers; assay type: in vivo; conditions: for serum CTX (bone resorption marker) / serum P1NP (bone formation marker): 40 mg/kg oral, 21 days, compared to vehicle; for serum 1,25-vitamin D / serum BUN / serum PTH levels / serum calcium / serum phosphorus: after 21 days of treatment, 2 hours after final dose
Method: . In addition, one group of mice with oral vehicle solution (negative control) and another group of mice were treated with once daily subcutaneous hPTH(1-34) (80 μg/kg) injections (positive control). […]. Serum mineral metabolism parameters were measured in mice in all 5 treatment groups after 21 days of treatment (serum was collected 2 hours after the final treatment dose). […]. Serum bone turnover markers (P1NP, a marker of bone formation; CTX, a marker of bone resorption) were next measured on samples collected after 21 days of treatment. […]

RANKL = RANKL gene expression in Ocy454 cells (RT-qPCR); conditions: for RANKL expression: 4 hours, RT-qPCR;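 for all read-outs here: Ocy454 cells moved to 37 °C for osteocytic differentiation before compound exposure, RANKL mRNA by SYBR Green qRT-PCR, 2^−ΔΔCT with β-actin normalization, duplicate wells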
SOST = SOST gene expression in Ocy454 cells (RT-qPCR); assay type: cell-based; conditions: 4 hours
[3] = Initial mouse pharmacokinetic study; assay type: in vivo
[4] = system: eugonadal 8 week old male mice; test: 3-week mouse study: femur microCT; assay type: in vivo; conditions: 3 weeks; for midshaft cortical bone tissue mineral density (TMD), microCT: femur
Method: (§1) […]. In addition, one group of mice with oral vehicle solution (negative control) and another group of mice were treated with once daily subcutaneous hPTH(1-34) (80 μg/kg) injections (positive control). […].

CRTC2 (TORC2) = test: CRTC2 nuclear translocation (PathHunter U2OS); assay type: cell-based
Outline: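 U2OS enzyme-fragment complementation cells (ED-tagged CRTC2, EA-tagged nuclear TAZ domain) treated 90 minutes, duplicate 5-point 4-fold dilutions from 10 μM. Chemiluminescent substrate signal; maximal translocation expressed as percent of forskolin-stimulated signal.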

[5] = 3-week mouse study: tolerability and serum drug levels; assay type: in vivo, mice
Method: […]. For oral gavage, cmpd. 51 was dissolved in vehicle solution of 15% hydroxy-propyl beta-cyclodextrin in sterile water.
as §1

[6] = system: eugonadal 8 week old male mice; test: 3-week mouse study: tibia histology and femur histomorphometry; assay type: in vivo; conditions: 3 weeks
Method: as §1

SIK1 in HEK293T cells = SIK1 in HEK293T cells (Homo sapiens (Human), UniProt P57059); test: cell-based; conditions: read-out: IC50 for SIK1 (nanoBRET)
SIK1 = SIK1 (Homo sapiens (Human), UniProt P57059); test: In vitro SIK1 kinase assay; assay type: biochemical
[7] = biological target: NanoLuc-SIK2 fusion in HEK293 cells (Homo sapiens (Human), UniProt Q9H0K1); test: cell-based; conditions: HEK293T cells; read-out: IC50 for SIK2 (nanoBRET)
SIK3 = SIK3 (Homo sapiens (Human), UniProt Q9Y2K2); test: In vitro SIK3 kinase assay; assay type: biochemical
Recombinant SIK2 = Recombinant SIK2 (Homo sapiens (Human), UniProt Q9H0K1); test: biochemical; conditions: recombinant SIK2 2.5 nM, 1 μM ATP; read-out: SIK2 IC50
SIK3 in HEK293T cells = SIK3 in HEK293T cells (Homo sapiens (Human), UniProt Q9Y2K2); test: cell-based; conditions: read-out: IC50 for SIK3 (nanoBRET)
SIK3 in HEK293T cells, sequence (Q9Y2K2 whole entry): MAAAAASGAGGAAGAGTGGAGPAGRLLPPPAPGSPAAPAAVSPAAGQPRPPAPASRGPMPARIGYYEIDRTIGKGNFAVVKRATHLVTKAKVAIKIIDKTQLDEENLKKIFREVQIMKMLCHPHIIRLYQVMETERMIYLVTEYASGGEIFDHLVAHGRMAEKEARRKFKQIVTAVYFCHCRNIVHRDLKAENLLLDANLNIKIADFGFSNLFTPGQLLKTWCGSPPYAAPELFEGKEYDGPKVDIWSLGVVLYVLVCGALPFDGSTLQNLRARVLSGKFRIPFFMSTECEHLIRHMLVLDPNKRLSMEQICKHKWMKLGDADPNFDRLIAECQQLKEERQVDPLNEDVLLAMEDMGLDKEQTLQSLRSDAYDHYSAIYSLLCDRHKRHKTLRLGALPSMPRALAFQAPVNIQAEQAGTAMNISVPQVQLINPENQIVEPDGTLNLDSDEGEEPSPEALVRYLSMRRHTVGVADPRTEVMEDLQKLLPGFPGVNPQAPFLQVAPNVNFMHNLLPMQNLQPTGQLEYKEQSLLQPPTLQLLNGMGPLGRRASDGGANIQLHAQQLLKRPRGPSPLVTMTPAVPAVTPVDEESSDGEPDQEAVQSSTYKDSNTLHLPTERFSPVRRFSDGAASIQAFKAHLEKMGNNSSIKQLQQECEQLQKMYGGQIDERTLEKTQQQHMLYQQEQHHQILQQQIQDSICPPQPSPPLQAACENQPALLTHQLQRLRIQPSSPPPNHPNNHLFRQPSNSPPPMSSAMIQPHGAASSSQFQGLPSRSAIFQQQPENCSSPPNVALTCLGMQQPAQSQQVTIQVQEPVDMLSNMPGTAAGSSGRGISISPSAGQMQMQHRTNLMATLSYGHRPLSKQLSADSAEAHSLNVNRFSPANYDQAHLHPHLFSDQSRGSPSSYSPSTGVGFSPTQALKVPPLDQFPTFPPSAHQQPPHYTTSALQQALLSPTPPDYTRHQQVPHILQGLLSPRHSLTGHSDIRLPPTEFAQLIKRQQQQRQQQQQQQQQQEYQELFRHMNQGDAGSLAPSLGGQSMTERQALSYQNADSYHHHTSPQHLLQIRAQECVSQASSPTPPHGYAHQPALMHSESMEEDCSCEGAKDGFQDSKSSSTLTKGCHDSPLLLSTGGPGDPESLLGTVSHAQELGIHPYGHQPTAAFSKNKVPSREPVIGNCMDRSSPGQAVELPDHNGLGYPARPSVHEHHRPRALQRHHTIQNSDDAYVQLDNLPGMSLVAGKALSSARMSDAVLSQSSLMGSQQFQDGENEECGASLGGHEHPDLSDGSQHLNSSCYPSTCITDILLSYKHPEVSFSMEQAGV

SIK3, sequence (Q9Y2K2 whole entry): as above
SIK1 in HEK293T cells, sequence (P57059 whole entry): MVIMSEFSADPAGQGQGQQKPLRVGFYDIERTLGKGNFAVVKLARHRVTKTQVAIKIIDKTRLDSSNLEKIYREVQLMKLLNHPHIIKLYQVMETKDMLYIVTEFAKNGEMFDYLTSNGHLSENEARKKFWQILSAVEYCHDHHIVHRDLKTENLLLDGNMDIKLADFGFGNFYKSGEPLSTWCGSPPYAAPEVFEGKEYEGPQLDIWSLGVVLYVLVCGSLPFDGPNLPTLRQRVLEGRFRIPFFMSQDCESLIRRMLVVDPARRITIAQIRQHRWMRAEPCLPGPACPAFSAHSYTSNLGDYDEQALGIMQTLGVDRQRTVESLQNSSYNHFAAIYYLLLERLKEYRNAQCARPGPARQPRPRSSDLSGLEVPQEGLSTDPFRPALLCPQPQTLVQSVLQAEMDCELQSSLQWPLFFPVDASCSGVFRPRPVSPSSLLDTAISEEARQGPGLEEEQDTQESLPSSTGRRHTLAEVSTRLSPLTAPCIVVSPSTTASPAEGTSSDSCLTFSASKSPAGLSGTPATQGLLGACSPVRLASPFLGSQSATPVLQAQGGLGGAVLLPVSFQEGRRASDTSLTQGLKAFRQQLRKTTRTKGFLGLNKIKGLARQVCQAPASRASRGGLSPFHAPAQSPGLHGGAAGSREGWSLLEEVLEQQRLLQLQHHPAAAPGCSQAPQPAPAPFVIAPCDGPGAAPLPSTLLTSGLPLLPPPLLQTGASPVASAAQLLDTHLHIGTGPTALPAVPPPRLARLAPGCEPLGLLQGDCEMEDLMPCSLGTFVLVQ
SIK1, sequence (P57059 whole entry, the tested form may be a part): as the sequence (P57059 whole entry) above
Recombinant SIK2, sequence (Q9H0K1 whole entry): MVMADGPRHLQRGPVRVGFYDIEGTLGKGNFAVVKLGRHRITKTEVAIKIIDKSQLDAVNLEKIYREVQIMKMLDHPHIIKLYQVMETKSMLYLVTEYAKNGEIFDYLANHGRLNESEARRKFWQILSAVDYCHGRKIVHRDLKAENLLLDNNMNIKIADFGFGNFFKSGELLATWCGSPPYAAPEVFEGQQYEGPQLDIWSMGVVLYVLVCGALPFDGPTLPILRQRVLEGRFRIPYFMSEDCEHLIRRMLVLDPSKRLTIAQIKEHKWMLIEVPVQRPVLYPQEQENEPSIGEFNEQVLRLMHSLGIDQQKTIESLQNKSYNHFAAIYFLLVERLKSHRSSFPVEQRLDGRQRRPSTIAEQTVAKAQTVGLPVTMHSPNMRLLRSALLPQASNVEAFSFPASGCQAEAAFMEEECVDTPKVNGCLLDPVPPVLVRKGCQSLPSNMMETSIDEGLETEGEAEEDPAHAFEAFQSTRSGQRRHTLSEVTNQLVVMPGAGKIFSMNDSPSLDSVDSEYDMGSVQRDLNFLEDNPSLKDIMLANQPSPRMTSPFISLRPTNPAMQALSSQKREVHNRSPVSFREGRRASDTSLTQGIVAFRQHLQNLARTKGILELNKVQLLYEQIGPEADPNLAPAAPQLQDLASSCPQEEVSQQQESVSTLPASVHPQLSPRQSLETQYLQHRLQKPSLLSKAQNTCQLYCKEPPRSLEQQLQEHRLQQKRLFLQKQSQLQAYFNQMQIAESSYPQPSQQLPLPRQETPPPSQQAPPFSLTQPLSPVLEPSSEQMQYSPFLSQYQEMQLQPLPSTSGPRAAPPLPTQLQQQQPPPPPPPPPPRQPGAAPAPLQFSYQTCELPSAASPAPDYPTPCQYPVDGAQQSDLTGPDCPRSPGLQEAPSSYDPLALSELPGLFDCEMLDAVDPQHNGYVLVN
NanoLuc-SIK2 fusion in HEK293 cells, sequence (Q9H0K1 whole entry, the tested form may be a part): as the sequence (Q9H0K1 whole entry) above

For CCc1nnc(-c2c(OC)cc(-c3cnc4cc(-c5cnn(C)c5)ccn34)cc2OC)o1 [Example 51, 2-[2,6-Dimethoxy-4-[7-(1-methylpyrazol-4-yl)imidazo[1,2-a]pyridin-3-yl]phenyl]-5-ethyl-1,3,4-oxadiazole], the “Ctsk (cathepsin K) expression in cortical bone” value ([1]; RT-qPCR) was “expression was increased; also recorded: increases the expression”, the “Sost mRNA (sclerostin gene expression) in cortical bone” value ([1]; RT-qPCR) was “reduced sclerostin gene expression” and the “Spp1 (osteopontin) expression in cortical bone” value ([1]; RT-qPCR) was “expression was increased; also recorded: increases the expression of Spp1”. For the same compound, the “sclerostin protein levels in bone” value ([1]; immunohistochemistry) was “reduced”, the HDAC4/5 phosphorylation (HDAC4/5) was “reduces levels of HDAC4/5 phosphorylation” and the HDAC4/5 phosphorylation (HDAC4/5; listed as Cmpd. 51) was “reduced phosphorylated HDAC4/5 levels”. For the same compound, the HDAC4/5 phosphorylation (HDAC4/5; listed as cmpd. 51) was “dose-dependent reduction of phosphorylation”, the “serum CTX (bone resorption marker)” value ([2]; listed as Cmpd. 51) was “increasing this marker of bone remodeling” and the “serum P1NP (bone formation marker)” value ([2]; listed as Cmpd. 51) was “increasing this marker of bone remodeling”. The “serum CTX (bone resorption marker)” value ([2]; listed as cmpd. 51) was “increased”, the “serum P1NP (bone formation marker)” value ([2]; listed as cmpd. 51) was “increased P1NP” and the “serum 1,25-vitamin D” value ([2]; listed as Cmpd. 51) was “increased serum 1,25-vitamin D”. The “serum BUN” value ([2]; listed as Cmpd. 51) was “did not affect serum BUN levels”, the “serum PTH levels” value ([2]; listed as Cmpd. 51) was “suppressed PTH levels” and the serum calcium ([2]; listed as Cmpd. 51) was “increased serum calcium”. For the same compound, the serum phosphorus ([2]; listed as Cmpd. 51) was “did not affect serum phosphorus levels”, the “serum 1,25-vitamin D” value ([2]; listed as cmpd. 51) was “increased 1,25-vitamin D levels” and the “serum BUN” value ([2]; listed as cmpd. 51) was “did not alter”. For the same compound, the “serum PTH levels” value ([2]; listed as cmpd. 51) was “reduced serum PTH levels”, the serum calcium ([2]; listed as cmpd. 51) was “increased calcium” and the serum phosphorus ([2]; listed as cmpd. 51) was “did not alter”. The RANKL expression (RANKL) was “stimulates RANKL expression”, the RANKL expression (RANKL; listed as cmpd. 51) was “increased RANKL; also recorded: induction of RANKL” and the SOST expression (SOST) was “reduces SOST”. The SOST expression (SOST; listed as cmpd. 51) was “suppressed SOST expression; also recorded: suppression of SOST expression”, the oral availability ([3]; single dose of 10 mg/kg) was “excellent oral availability” and the maximum serum concentration ([3]; single oral dose of 10 mg/kg) was 11 µM. For the same compound, the “primary spongiosa bone mineral density (BMD), microCT” value ([4]; distal femur, 40 mg/kg) was “increased bone mineral density (BMD)”, the “primary spongiosa bone volume fraction (BV/TV), microCT” value ([4]; distal femur, 40 mg/kg) was “increased primary spongiosa bone volume fraction (BV/TV)” and the “midshaft cortical bone tissue mineral density (TMD), microCT” value ([4]; listed as Cmpd. 51) was “increased cortical bone tissue mineral density”. For the same compound, the “midshaft cortical bone tissue mineral density (TMD), microCT” value ([4]; listed as cmpd. 51) was “gains in bone mass”, the EC50 (CRTC2 (TORC2); Homo sapiens, U2OS, read-out: CRTC2 nuclear translocation EC50) was 147 nM and the “CRTC2 Efficacy (% of forskolin)” value (CRTC2 (TORC2); maximal CRTC2 nuclear translocation, U2OS cells, 90 minutes, maximum dose 10 μM) was 86.5 % of forskolin. For the same compound, the serum drug levels ([5]; 2 hours after oral gavage on day 13, 3 dose groups) was “increased in a dose-dependent manner; also recorded: Dose-dependent increases”, the “tolerability (health concerns, weight loss, toxicities)” value ([5]; mice, once daily oral gavage for 3 weeks) was “without obvious health concerns or weight loss; also recorded: without obvious toxicities” and the “TRAP-positive osteoclasts (tibia sections)” value ([6]; cmpd. 51 40 mg/kg) was “increased TRAP-positive osteoclasts”. The “osteoblasts (tibia sections)” value ([6]; cmpd. 51 40 mg/kg) was “increased osteoblasts”, the “trabecular bone (tibia sections, hematoxylin and eosin)” value ([6]; cmpd. 51 40 mg/kg) was “increased trabecular bone mass” and the “bone formation rate (BFR/BS), histomorphometry” value ([6]; distal femur metaphysis) was “increased the bone formation rate”. For the same compound, the “bone volume fraction (BV/TV), histomorphometry” value ([6]; distal femur metaphysis) was “increased bone volume fraction (BV/TV); also recorded: increased trabecular bone mass”, the “matrix apposition rate (MAR), histomorphometry” value ([6]; distal femur metaphysis) was “increased matrix apposition rate” and the “mineralizing surface (MS/BS), histomorphometry” value ([6]; distal femur metaphysis) was “Neither cmpd. 51 nor PTH treatment increased”. The “osteoblast surfaces (Ob.S.BS), histomorphometry” value ([6]; distal femur metaphysis) was “increased osteoblast surfaces” and the “osteoclast numbers (N.Oc/B.Pm), histomorphometry” value ([6]; distal femur metaphysis) was “increased osteoclast numbers”.
In the case of CCc1nnc(-c2c(OC)cc(-c3cnc4cc(-c5cnn(C6CC6)c5)ccn34)cc2OC)o1 [Example 55, 2-[4-[7-(1-Cyclopropylpyrazol-4-yl)imidazo[1,2-a]pyridin-3-yl]-2,6-dimethoxy-phenyl]-5-ethyl-1,3,4-oxadiazole], the IC50 (SIK1 in HEK293T cells) is reported as 2100 nM, the IC50 (SIK1) is reported as 16 nM and the IC50 [7] is reported as 12.2 nM. The IC50 (SIK3) was 2.66 nM, the IC50 (Recombinant SIK2) was 1.48 nM and the IC50 (SIK3 in HEK293T cells) was 4.48 nM. For the same compound, the “RANKL Fold Induction” value (RANKL; maximal RANKL fold induction versus DMSO, four hours) was 22.80 fold.
